From ChEMBL document CHEMBL1201862, “PubChem BioAssay data set” (2004)
Active and inactive are the calls of the source.

Tests used:
[1] = P. falciparum Dd2 growth inhibitors, dose response, SYBR Green, cherry-picked samples (AID 1159567); format: functional, cell-based
[2] = HepG2 cell cytotoxicity, dose response, cytotoxicity control, cherry-picked samples (AID 1159577); format: functional, cell-based
[3] = cells; format: functional, cell-based
[4] = cells; format: functional, cell-based; remark: listed apart in the source
[5] = test system: Vero; assay: host cell cytotoxicity of antiviral hits, dose response, cytotoxicity control for West Nile virus antiviral project, secondary assay (AID 1650); format: functional; conditions: Chlorocebus sabaeus
[6] = NIH-3T3 fibroblast cytotoxicity, dose response, cytotoxicity control, cell-based, fluorescence, Alamar Blue, secondary assay (AID 2327); format: functional;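 note: NIH-3T3 mouse fibroblasts cultured with fluconazole at 8 µg/mL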
[7] = test system: BJ; assay: cytotoxicity toward BJ-TERT fibroblasts, dose response, cell-based, RAS-independent, luminescence (AID 1933); format: functional; conditions: Homo sapiens
[8] = test system: BJ; assay: cells; format: functional, cell-based; conditions: Homo sapiens
[9] = C. albicans growth with fluconazole, confirmation, fluorescence, retest (AID 2467); format: functional, cell-based
[10] = molecular target: Luciferin 4-monooxygenase (Photinus pyralis, UniProt P08659); assay: firefly luciferase enzyme inhibitors, dose response, biochemical, luminescence (AID 1891)
[11] = Luminescence Cell-Based Dose Confirmation HTS to Identify Inhibitors of Platelet Dense Granule Release. [Related pubchem assays: 1663 (Primary HTS), 1678 (Summary of Project)]; format: functional
[12] = test system: BJ; assay: cytotoxicity toward BJ-TERT-LT-ST fibroblasts, dose response, cell-based, RAS-independent, luminescence (AID 1935); format: functional; conditions: Homo sapiens;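 note: BJ fibroblasts immortalized with TERT plus LT and ST oncogenes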
[13] = cytotoxicity toward DRD oncogenic fibroblasts, dose response, cell-based, non-viral oncogenic, luminescence (AID 1934); format: functional; conditions: Homo sapiens
[14] = THP-1 cell cytotoxicity, dose response, cytotoxicity control for non-replicating M. tuberculosis project (AID 489025); format: functional
[15] = HepG2 cell cytotoxicity, dose response, cytotoxicity control for non-replicating M. tuberculosis project (AID 489018); format: functional; conditions: Mycobacterium tuberculosis
[16] = Vero E6 cell cytotoxicity, dose response, cytotoxicity control for non-replicating M. tuberculosis project, secondary assay (AID 492998); format: functional, VeroE6; conditions: Vero C1008
[17] = molecular target: Heat shock protein HSP 90-alpha (Homo sapiens, UniProt P07900); format: functional, organism-based
[18] = molecular target: T1, Insulin-degrading enzyme (Homo sapiens, UniProt P14735); assay: activators of recombinant IDE enzyme, dose response, counter-screen for IDE activator project, biochemical, fluorescence polarization (AID 588681)
T1 sequence (P14735 whole entry): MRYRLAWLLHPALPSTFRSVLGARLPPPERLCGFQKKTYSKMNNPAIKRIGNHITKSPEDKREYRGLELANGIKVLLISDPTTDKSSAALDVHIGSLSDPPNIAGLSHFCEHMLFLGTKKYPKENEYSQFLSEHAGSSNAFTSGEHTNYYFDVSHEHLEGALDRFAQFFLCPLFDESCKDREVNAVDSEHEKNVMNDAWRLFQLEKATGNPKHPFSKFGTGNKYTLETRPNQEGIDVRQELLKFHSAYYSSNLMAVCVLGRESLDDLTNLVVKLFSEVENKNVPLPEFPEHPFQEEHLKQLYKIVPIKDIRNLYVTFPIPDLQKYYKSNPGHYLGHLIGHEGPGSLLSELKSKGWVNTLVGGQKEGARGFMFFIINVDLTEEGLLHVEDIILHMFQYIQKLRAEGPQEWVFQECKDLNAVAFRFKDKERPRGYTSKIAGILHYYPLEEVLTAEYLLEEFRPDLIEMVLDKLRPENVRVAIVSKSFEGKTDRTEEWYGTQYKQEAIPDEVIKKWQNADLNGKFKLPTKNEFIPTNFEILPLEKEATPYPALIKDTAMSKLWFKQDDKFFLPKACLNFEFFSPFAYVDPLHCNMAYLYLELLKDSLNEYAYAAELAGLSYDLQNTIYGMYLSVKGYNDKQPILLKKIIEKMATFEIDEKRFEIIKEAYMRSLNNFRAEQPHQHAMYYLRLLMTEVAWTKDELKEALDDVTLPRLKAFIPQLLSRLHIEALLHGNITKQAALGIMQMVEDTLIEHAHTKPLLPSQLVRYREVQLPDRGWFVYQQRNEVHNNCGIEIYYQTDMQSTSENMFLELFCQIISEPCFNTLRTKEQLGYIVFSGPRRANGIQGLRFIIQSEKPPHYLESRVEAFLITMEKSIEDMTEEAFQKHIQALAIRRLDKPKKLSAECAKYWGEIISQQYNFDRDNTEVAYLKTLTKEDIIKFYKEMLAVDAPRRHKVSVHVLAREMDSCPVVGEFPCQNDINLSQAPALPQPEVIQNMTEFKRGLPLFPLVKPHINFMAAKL

[19] = molecular target: T1, Insulin-degrading enzyme; assay: activators of endogenous IDE in HEK cells, dose response, cell-based, fluorescence polarization (AID 588439); format: functional
[20] = test system: HEK293; assay: HEK cell cytotoxicity by LDH release, dose response, cytotoxicity control for IDE activator project, fluorescence, HEK cells (AID 588440); format: functional, cell-based; conditions: Homo sapiens;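 note: cytotoxicity by LDH release measuring loss of membrane integrity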
[21] = test system: HEK293; assay: optical interference in Abeta FP readout, dose response, artefact control for IDE activator project, biochemical, fluorescence polarization (AID 588442); format: functional, cell-based; conditions: Homo sapiens
[22] = molecular target: Paired box protein Pax-8 (Homo sapiens, UniProt Q06710); assay: inhibitors of PAX8-driven TPO luciferase reporter, dose response, RMG-I cells, cherry-pick (AID 687027); format: functional, cell-based;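 note: luciferase reporter driven by Pax8 target thyroperoxidase promoter measured by SteadyGlo luminescence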
[23] = A549 cell cytotoxicity, dose response, cytotoxicity control, plate reader, cherry-pick, antagonist series (AID 743412); format: functional, cell-based
[24] = HepG2 cell cytotoxicity, dose response, cytotoxicity control, plate reader, cherry-pick, antagonist series (AID 743416); format: functional, cell-based
[25] = LGR2 antagonists, dose response, cell-based, HEK293, CRE-luciferase reporter, cherry pick, set 2 (AID 743343); format: functional;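 note: transfected cells were stimulated with diluted bursicon conditioned medium after compound addition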
[26] = non-specific cell cytotoxicity, dose response, cytotoxicity control for PAX8 inhibitor project, plate reader, dry powder samples (AID 743021); format: functional, cell-based
[27] = MC4R antagonists, dose response, counter-screen for LGR2 antagonist project, cell-based, plate reader, cherry pick (AID 743444); format: functional;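 note: transfected HEK 293 cells stimulated with alpha-MSH peptide; potency of inhibitors of the alpha-MSH evoked signal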
[28] = HEK293 cell cytotoxicity, dose response, cytotoxicity control, plate reader, cherry-picked samples (AID 743446); format: functional, cell-based
[29] = P. falciparum 3D7-ScDHODH growth inhibitors, dose response, SYBR Green, dry powder samples (AID 1159570); format: functional, cell-based;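 note: parasite growth measured after 72 hours of compound exposure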
[30] = P. falciparum Dd2 growth inhibitors, dose response, SYBR Green, dry powder samples (AID 1159566); format: functional, cell-based;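 note: potency for growth inhibition with lower SYBR green DNA signal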
[31] = P. falciparum ATP4 D1247Y mutant growth inhibitors, dose response, NITD609-resistant line, SYBR Green, dry powder (AID 1159571); format: functional, cell-based;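 note: parasites synchronized at ring stage by sorbitol before testing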
[32] = molecular target: T2, Fructose-bisphosphate aldolase (Mycobacterium tuberculosis, UniProt P9WQA3); assay: Fluorescence-based biochemical high throughput dose response assay for inhibitors of the fructose-bisphosphate aldolase (FBA) of M. tuberculosis.; format: functional
T2 sequence (P9WQA3 whole entry): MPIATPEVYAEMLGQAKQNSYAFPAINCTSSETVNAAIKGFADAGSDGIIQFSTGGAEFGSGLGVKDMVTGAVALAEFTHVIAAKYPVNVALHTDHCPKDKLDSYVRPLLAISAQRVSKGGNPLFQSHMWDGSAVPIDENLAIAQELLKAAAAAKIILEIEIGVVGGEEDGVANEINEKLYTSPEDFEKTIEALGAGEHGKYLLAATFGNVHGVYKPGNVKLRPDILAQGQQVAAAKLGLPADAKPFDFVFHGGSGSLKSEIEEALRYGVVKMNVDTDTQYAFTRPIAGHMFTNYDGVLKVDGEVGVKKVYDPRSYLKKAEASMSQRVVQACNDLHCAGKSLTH

[33] = THP-1 cell cytotoxicity, dose response, cytotoxicity control for Vif-APOBEC3G degradation inhibitor project, THP-1 cells (AID 1117359); format: functional; conditions: Human immunodeficiency virus 1, THP-1

Chain of Luciferin 4-monooxygenase (P08659 whole entry): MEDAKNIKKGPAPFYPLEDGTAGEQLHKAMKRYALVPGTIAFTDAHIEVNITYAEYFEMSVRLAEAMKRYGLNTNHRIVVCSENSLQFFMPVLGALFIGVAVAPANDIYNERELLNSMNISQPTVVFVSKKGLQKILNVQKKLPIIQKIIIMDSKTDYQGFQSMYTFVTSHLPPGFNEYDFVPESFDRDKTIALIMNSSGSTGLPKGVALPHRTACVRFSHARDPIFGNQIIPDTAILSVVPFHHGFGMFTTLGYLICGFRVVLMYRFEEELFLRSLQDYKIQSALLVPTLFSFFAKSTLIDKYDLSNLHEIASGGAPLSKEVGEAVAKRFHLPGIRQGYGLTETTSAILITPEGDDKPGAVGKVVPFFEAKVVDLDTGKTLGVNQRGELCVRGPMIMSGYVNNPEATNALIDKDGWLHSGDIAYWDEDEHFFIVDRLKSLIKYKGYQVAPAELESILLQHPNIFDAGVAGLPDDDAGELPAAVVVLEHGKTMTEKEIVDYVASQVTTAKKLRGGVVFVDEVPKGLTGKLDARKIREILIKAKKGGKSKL
Chain of Paired box protein Pax-8 (Q06710 whole entry): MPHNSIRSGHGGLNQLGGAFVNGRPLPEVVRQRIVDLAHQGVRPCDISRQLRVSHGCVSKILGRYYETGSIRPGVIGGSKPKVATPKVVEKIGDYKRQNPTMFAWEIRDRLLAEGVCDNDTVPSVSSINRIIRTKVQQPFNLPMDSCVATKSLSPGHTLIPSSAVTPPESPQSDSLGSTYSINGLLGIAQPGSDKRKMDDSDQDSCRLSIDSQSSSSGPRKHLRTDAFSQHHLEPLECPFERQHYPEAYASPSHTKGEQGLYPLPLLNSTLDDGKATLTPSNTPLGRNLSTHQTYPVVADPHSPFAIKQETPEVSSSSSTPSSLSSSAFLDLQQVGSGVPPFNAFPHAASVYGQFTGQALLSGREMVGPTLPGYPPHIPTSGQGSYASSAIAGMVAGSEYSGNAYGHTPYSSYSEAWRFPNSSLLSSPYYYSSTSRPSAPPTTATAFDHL

C[C@@H]1CN([C@H](C)CO)C(=O)c2ccccc2-c2ccccc2CO[C@@H]1CN(C)Cc1ccccc1C(F)(F)F
AC50 [1]: 2.79 µM (active)
AC50 [2]: 15.7 µM (active)

O=C(Cn1cnc2ccccc21)N/N=C/c1cccs1
IC50 [3]: > 29.9 µM (inactive)
EC50 [4]: > 29.9 µM (inactive)

C[C@H](CO)N1C[C@H](C)[C@H](CN(C)C(=O)c2cc(Cl)cc(Cl)c2)OCc2ccccc2-c2c(n(C)c3ccccc23)C1=O
AC50 [1]: 4.11 µM (active)
AC50 [2]: > 39 µM (inactive)

COC1CC(OC2CCC3(C)C(CCC4C3CCC3(C)C(C5=CC(=O)OC5)C(OC(C)=O)CC43O)C2)OC(C)C1OC1OC(COC2OC(CO)C(O)C(O)C2O)C(O)C(O)C1O (stereo not drawn)
CC50 [5]: 4.14 µM (active)

COc1ccc(NC(=O)c2cc([N+](=O)[O-])ccc2O)cc1
EC50 [6]: 11.6 µM (active)
EC50 [7]: 9.48 µM (active)
EC50 [8]: 5.17 µM (active)
EC50 [9]: 1.27 µM (active)
EC50 [10]: 0.129 µM (active)
EC50 [11]: 2.15 µM (active)
EC50 [12]: > 150 µM (inconclusive)
EC50 [13]: 6.2 µM (active)
CC50 [14]: 26.5 µM (active)
CC50 [15]: > 20 µM (active)
CC50 [16]: > 20 µM (active)
AC50 [17]: 3.37 µM (active)
EC50 [18]: > 54.7 µM (inactive)
EC50 [19]: > 54.7 µM (inactive)
IC50 [20]: > 89.1 µM (inactive)
EC50 [21]: > 54.7 µM (inactive)
AC50 [22]: 5.39 µM (active)
AC50 [23]: 11.9 µM (active)
AC50 [24]: 9.22 µM (active)
AC50 [25]: 0.784 µM (active)
AC50 [26]: 12.4 µM (active)
AC50 [27]: 0.739 µM (active)
AC50 [28]: 6.28 µM (active)

CC(C)CC#Cc1ccc([C@H]2[C@H](CO)N3CCCCN(S(=O)(=O)Cc4ccccc4)C[C@@H]23)cc1
AC50 [1]: 4.8 µM (active)
AC50 [2]: 9.45 µM (active)

COc1ccc2c3c(n(C)c2c1)[C@@H](CO)N(C(=O)C1CCCC1)CC31CCN(C(=O)Nc2cccc(F)c2)CC1
AC50 [29]: 0.0947 µM (active)
AC50 [1]: 0.672 µM (active)
AC50 [30]: 0.418 µM (active)
AC50 [31]: 0.239 µM (active)

Cc1cc2c(SCc3ccccc3Cl)nc(N)nc2nc1C
IC50 [32]: 0.833 µM (active)

CNc1ccc(Br)cc(C(=O)/C=C/c2cccc(OC)c2OC)c1=O
CC50 [33]: > 40 µM (active)
